Results taken from ChEMBL document CHEMBL3232965, “The σ2 receptor: a novel protein for the imaging and treatment of cancer” (J Med Chem, 2013).

What was measured:
[1] = target: Sigma non-opioid intracellular receptor 1 (Homo sapiens, UniProt Q99720); experiment: Binding affinity to sigma-1 opioid receptor (unknown origin)
[2] = Binding affinity to sigma-2 opioid receptor (unknown origin); set-up: species or system Homo sapiens
Homo sapiens [3] = species: Homo sapiens; experiment: Selectivity ratio of Ki for sigma-1 opioid receptor (unknown origin) to Ki for sigma-2 opioid receptor (unknown origin)
Homo sapiens [4] = species: Homo sapiens; experiment: Selectivity ratio of IC50 for sigma-1 opioid receptor (unknown origin) to IC50 for sigma-2 opioid receptor (unknown origin)
[5] = Displacement of [3H]di-o-tolylguanidine from sigma-2 opioid receptor in rat brain; type: tissue-based
[6] = Displacement of [3H]progesterone from sigma-1 opioid receptor in porcine liver microsome membranes; type: microsomes, Sus scrofa
[7] = Ratio of drug level in nuclear fraction to cytosolic fraction of human MCF7/ADR cells at 20 to 50 uM after 2 hrs by beta counting analysis; type: ADME, cell-based; conditions: nci/adr-res
[8] = Selectivity ratio of Ki for guinea pig brain sigma-1 opioid receptor to Ki for rat liver sigma-2 opioid receptor
[9] = Ratio of drug level in nuclear fraction to cytosolic fraction of human SK-N-SH cells at 20 to 50 uM after 2 hrs by beta counting analysis; type: ADME, cell-based
[10] = Displacement of [3H]-DTG from sigma-2 opioid receptor in rat liver
[11] = Lipophilicity, log P of the compound; type: physicochemical; conditions: octanol/water
[12] = Binding affinity to sigma-1 opioid receptor (unknown origin)
[13] = Binding affinity to guinea pig hippocampus sigma-2 opioid receptor; set-up: species or system Cavia porcellus
Cavia porcellus [14] = species: Cavia porcellus; experiment: Selectivity ratio of Ki for guinea pig hippocampus sigma-1 opioid receptor to Ki for guinea pig hippocampus sigma-2 opioid receptor
[15] = target: Sigma non-opioid intracellular receptor 1 (Cavia porcellus, UniProt Q60492); experiment: Binding affinity to guinea pig brain membrane sigma-1 opioid receptor by radioligand displacement assay
Sigma non-opioid intracellular receptor 1 (Cavia porcellus, UniProt Q60492), sequence (Q60492 whole entry): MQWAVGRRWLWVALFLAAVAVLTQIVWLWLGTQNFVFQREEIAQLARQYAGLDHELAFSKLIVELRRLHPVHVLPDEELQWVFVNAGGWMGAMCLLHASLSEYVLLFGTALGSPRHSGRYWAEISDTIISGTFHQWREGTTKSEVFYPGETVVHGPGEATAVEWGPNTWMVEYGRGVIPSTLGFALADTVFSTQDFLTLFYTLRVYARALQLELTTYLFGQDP

[16] = Binding affinity to guinea pig brain membrane sigma-2 opioid receptor by radioligand displacement assay; set-up: species or system Cavia porcellus
Cavia porcellus [17] = species: Cavia porcellus; experiment: Selectivity ratio of Ki for guinea pig brain membrane sigma-1 opioid receptor to Ki for guinea pig brain membrane sigma-2 opioid receptor
[18] = Displacement of [3H]ditolylguanidine from sigma-2 opioid receptor in rat liver membranes by liquid scintillation spectrometric analysis; type: cell membranes, Membrane
TRAMP = experiment: Selectivity ratio of Ki for sigma-1 opioid receptor in TRAMP cell membranes to Ki for sigma-2 opioid receptor in TRAMP cell membranes; type: cell-based; conditions: Mus musculus

Sigma non-opioid intracellular receptor 1 (Homo sapiens, UniProt Q99720), sequence (Q99720 whole entry): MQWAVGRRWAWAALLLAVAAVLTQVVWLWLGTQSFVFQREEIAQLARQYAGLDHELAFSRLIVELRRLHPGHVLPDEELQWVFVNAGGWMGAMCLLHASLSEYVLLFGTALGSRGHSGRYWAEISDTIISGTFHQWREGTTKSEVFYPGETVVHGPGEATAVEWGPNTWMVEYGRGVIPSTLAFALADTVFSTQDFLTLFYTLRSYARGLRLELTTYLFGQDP

SMILES | Ki [1] [nM] | Ki [2] [nM] | Ratio Ki (Homo sapiens [3]) | further results
CN1CC[C@@]2(c3cccc(O)c3)CC(=O)/C(=C/c3cccc(O)c3)[C@@H]1C2 | 10.5 | 153 | 0.07 | –
O=S(=O)(c1ccccc1)n1cc(CCCCN2CCC3(CC2)OCc2ccccc23)c2ccccc21 | 10 | 0.17 | – | Ratio IC50 (Homo sapiens [4]): 59
CN1CC[C@@]2(c3cccc(O)c3)CC(=O)/C(=C/c3ccc(Cl)c(Cl)c3)[C@@H]1C2 | 27.3 | 35.3 | 0.77 | –
CC(=O)c1ccc2c(c1)oc(=O)n2CCCCN1CCN(c2ccc(F)cc2)CC1 | – | – | – | Ki [5]: 7 nM
Fc1ccccc1N1CCN(CCCn2ccc3ccccc32)CC1 | 1490 | 75 | 20 | –
CS(=O)(=O)n1cc(CCCCN2CCC3(CC2)OCc2ccccc23)c2ccccc21 | 1.3 | 0.05 | – | Ratio IC50 (Homo sapiens [4]): 26
COc1cc2c(cc1OC)CN(CCCCNC(=O)c1cc(Br)cc(OC)c1OC)CC2 | – | 8.2 | – | –
CC(C)=CCN1CC[C@]2(C)c3cc(O)ccc3C[C@H]1[C@H]2C [(+)-PENTAZOCINE] | – | – | – | Ki [6]: 1130 nM
COc1cccc2c1CCCC2CCCN1CCN(C2CCCCC2)CC1 (racemic) | – | – | – | Ratio [7]: 5; Ratio Ki [8]: 0.56; Ratio [9]: 5
COc1cccc2c1CCC[C@@H]2NC(=O)CN1CCN(C2CCCCC2)CC1 | – | – | – | Ratio Ki [8]: 16; Ki [10]: 6 nM
COc1ccc(C)cc1NC(=O)OC1CC2CCCC(C1)N2Cc1ccc(N(C)C)cc1 (stereo not drawn) | 1440 | 2.6 | 553 | –
Fc1ccc(C2=CC3CCC(C2)N3CCCCc2cn(-c3ccc(F)cc3)c3ccccc23)cc1 (stereo not drawn) | 1200 | 2.5 | – | Ratio IC50 (Homo sapiens [4]): 480
COc1cc(Br)cc(C(=O)NCCCCN2CCN(c3cccc(Cl)c3Cl)CC2)c1OC | – | 75 | – | logP [11]: 5.76; Ki [12]: 809 nM
CC[C@H]1C[C@@H]2C[C@H]3c4[nH]c5ccc(OC)cc5c4CCN(C2)[C@@H]13 [IBOGAINE] | 8550 | – | – | –
CCC(Oc1ccc(Cl)cc1)C(=O)OC1CC2CCC(C1)N2C (racemic) | > 1000 | 67.5 | > 15 | –
CN1CC[C@]2(c3cccc(O)c3)CC(=O)/C(=C/c3cccc(O)c3)[C@H]1C2 | 3060 | 16.5 | 185 | –

SMILES | Ki [1] [nM] | Ki [2] [nM] | Ratio Ki (Homo sapiens [3]) | further results
COc1cc2c(cc1OC)CN(CCNC(=O)c1cc(C)ccc1OC)CC2 | – | 13.3 | – | –
CC[C@H]1C[C@H]2C[C@H]3c4[nH]c5ccc(OC)cc5c4CCN(C2)[C@@H]13 [IBOGAINE] | – | 201 | 43 | –
COc1cccc2c1CCCC2CCCC1CCN(C2CCCCC2)CC1 (stereo not drawn) | – | – | – | Ratio Ki [8]: 29; Ki [10]: 26.6 nM
COc1cc2c(cc1OC)CN(CCNC(=O)c1cc(Br)cc(OC)c1OC)CC2 | – | 16.4 | 179 | Ki [12]: 2930 nM
COc1cccc2c1CCC[C@H]2NC(=O)CN1CCN(C2CCCCC2)CC1 | – | – | – | Ratio Ki [8]: 2; Ki [10]: 10.1 nM
CCn1c(=O)n(C(=O)NC2CC3CCC(C2)N3C)c2ccccc21 (stereo not drawn) | – | – | – | Ki [13]: 32 nM; Ratio Ki (Cavia porcellus [14]): 197
COc1ccc(C(=O)NCCCCN2CCc3ccc([N+](=O)[O-])cc3C2)c(OC)c1OC | 10300 | 26.8 | 385 | –
COc1cc2c(cc1OC)CN(CCNC(=O)c1cc(Br)ccc1OC)CC2 | – | 12.4 | – | Ki [12]: 5480 nM
OC12C3C4CC5C6C4C1C6C(C53)N2Cc1ccc(F)cc1 (stereo not drawn) | – | – | – | Ki [15]: 152 nM; Ki [16]: 20 nM; Ratio Ki (Cavia porcellus [17]): 7.6
CN1CC[C@]2(c3cccc(O)c3)CC(=O)/C(=C/c3ccc(Cl)c(Cl)c3)[C@H]1C2 | 7440 | 13.4 | 555 | –
CC(=O)[C@H]1CC[C@H]2[C@@H]3CCC4=CC(=O)CC[C@]4(C)[C@H]3CC[C@]12C [PROGESTERONE] | – | – | – | Kd [18]: 441 nM
COC(=O)[C@@]1(c2ccccc2)C[C@H]1CN1C2CCC1CC(O)(c1ccc(Cl)cc1)C2 (stereo partly drawn) | – | – | – | Ratio Ki (Cavia porcellus [17]): 20.6
COc1cccc2c1CCCC2CCCN1CCC(C2CCCCC2)CC1 (stereo not drawn) | – | – | – | Ratio Ki [8]: 7.6; Ki [10]: 18.8 nM
COc1ccc(CN2C3CCC2CC3)cc1OC | – | 43 | – | –
COc1cccc2c(CCCN3CCN(C4CCCCC4)CC3)cccc12 | – | – | – | Ratio Ki (TRAMP): 13
